Measured values reported in patent US9999619B2, “Piperidin-4-yl azetidine derivatives as JAK1 inhibitors” (Incyte Corporation, priority 2010, dated 2018).

What was measured:
Type in all cases: biochemical
Jak2 (a.a. 828-1132) = Jak2 (a.a. 828-1132) (Homo sapiens (Human), UniProt O60674); assay: In vitro JAK kinase assay (HTRF, phosphorylation of a biotinylated peptide), JAK2; conditions: measured at 1 mM ATP
Procedure, shortened: (§1)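 N-terminally His-tagged catalytic domains, baculovirus-expressed in insect cells and purified, were used as enzyme. Reactions ran 1 hr at room temperature and were stopped with a mix of 45 mM EDTA, 300 nM SA-APC and 6 nM Eu-Py20. The HTRF signal was read after 40 min of antibody binding.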

[1] = biological target: human JAK1 (a.a. 837-1142) (Homo sapiens, UniProt P23458); assay: In vitro JAK kinase assay (HTRF, phosphorylation of a biotinylated peptide), JAK1; conditions: measured at 1 mM ATP
Procedure, shortened: as §1

[2] = biological target: human JAK1 (a.a. 837-1142); assay: as above; conditions: ratio of JAK2 IC50 to JAK1 IC50, measured at 1 mM ATP
Procedure, shortened: as §1

Sequence of Jak2 (a.a. 828-1132) (O60674 828-1132): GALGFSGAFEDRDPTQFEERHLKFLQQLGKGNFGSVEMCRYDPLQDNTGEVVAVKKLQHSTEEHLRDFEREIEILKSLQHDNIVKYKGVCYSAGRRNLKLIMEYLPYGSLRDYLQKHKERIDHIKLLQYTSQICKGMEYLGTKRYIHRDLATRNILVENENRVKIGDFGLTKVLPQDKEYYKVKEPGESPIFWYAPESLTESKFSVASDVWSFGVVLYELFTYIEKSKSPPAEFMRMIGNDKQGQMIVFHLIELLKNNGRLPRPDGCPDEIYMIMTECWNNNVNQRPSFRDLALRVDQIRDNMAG

| IC50 (Jak2 (a.a. 828-1132)) [nM] | IC50 [1] [nM] | IC50 Ratio JAK2/JAK1 [2] | Compound |
| --- | --- | --- | --- |
| > 100 | ≤ 5 | 43.8 | CN(C)Cc1cc(C#N)cc(C(=O)N2CCC(N3CC(CC#N)(n4cc(-c5ncnc6[nH]ccc56)cn4)C3)CC2)c1 [Example 369, 3-[(4-{3-(cyanomethyl)-3-[4-(7H-pyrrolo[2,3-d]pyrimidin-4-yl)-1H-pyrazol-1-yl]azetidin-1-yl}piperidin-1-yl)carbonyl]-5-[(dimethylamino)methyl]benzonitrile] |
| ≤ 10 | ≤ 5 | 5.7 | COc1ccc(F)cc1C(=O)N1CCC(N2CC(CC#N)(n3cc(-c4ncnc5[nH]ccc45)cn3)C2)CC1 [Example 38, {1-[1-(5-fluoro-2-methoxybenzoyl)piperidin-4-yl]-3-[4-(7H-pyrrolo[2,3-d]pyrimidin-4-yl)-1H-pyrazol-1-yl]azetidin-3-yl}acetonitrile] |
| ≤ 10 | ≤ 5 | 3.8 | N#CCC1(n2cc(-c3ncnc4[nH]ccc34)cn2)CN(C2CCN(C(=O)c3ccc(-c4cccnc4)c(F)c3)CC2)C1 [Example 123, {1-[1-(3-fluoro-4-pyridin-3-ylbenzoyl)piperidin-4-yl]-3-[4-(7H-pyrrolo[2,3-d]pyrimidin-4-yl)-1H-pyrazol-1-yl]azetidin-3-yl}acetonitrile] |
| 10 to 50 | ≤ 5 | 4.5 | N#CCC1(n2cc(-c3c(F)cnc4[nH]ccc34)cn2)CN(C2CCN(C(=O)c3ccc(C#N)cc3F)CC2)C1 [Example 317, 4-[(4-{3-(cyanomethyl)-3-[4-(5-fluoro-1H-pyrrolo[2,3-b]pyridin-4-yl)-1H-pyrazol-1-yl]azetidin-1-yl}piperidin-1-yl)carbonyl]-3-fluorobenzonitrile] |
| 10 to 50 | 5 to 20 | 3.2 | N#CCC1(n2cc(-c3ncnc4[nH]ccc34)cn2)CN(C2CCN(C(=O)c3cnccn3)CC2)C1 [Example 14, {1-[1-(pyrazin-2-lcarbonyl)piperidin-4-yl]-3-[4-(7H-pyrrolo[2,3-d]pyrimidin-4-yl)-1H-pyrazol-1-yl]azetidin-3-l}acetonitrile] |
| 10 to 50 | ≤ 5 | 12.1 | N#CCC1(n2cc(-c3ncnc4[nH]ccc34)cn2)CN(C2CCN(C(=O)Nc3c(Cl)cccc3Cl)CC2)C1 [Example 160, 4-{3-(cyanomethyl)-3-[4-(7H-pyrrolo[2,3-d]pyrimidin-4-yl)-1H-pyrazol-1-yl]azetidin-1-yl}-N-(2,6-dichlorophenyl)piperidine-1-carboxamide] |
| 50 to 100 | 5 to 20 | 4.4 | N#CCC1(n2cc(-c3ncnc4[nH]ccc34)cn2)CN(C2CCN(C(=O)c3ccc(C(F)(F)F)c(F)c3)CC2)C1 [Example 52, {1-{1-[3-fluoro-4-(trifluoromethyl)benzoyl]piperidin-4-yl}-3-[4-(7H-pyrrolo[2,3-d]pyrimidin-4-yl)-1H-pyrazol-1-yl]azetidin-3-yl}acetonitrile] |
| 10 to 50 | ≤ 5 | 9.5 | Cc1ccccc1NC(=O)N1CCC(N2CC(CC#N)(n3cc(-c4ncnc5[nH]ccc45)cn3)C2)CC1 [Example 185, 4-{3-(cyanomethyl)-3-[4-(7H-pyrrolo[2,3-d]pyrimidin-4-yl)-1H-pyrazol-1-yl]azetidin-1-yl}-N-(2-methylphenyl)piperidine-1-carboxamide] |
| 10 to 50 | ≤ 5 | 7.5 | COc1ccc(C(=O)N2CCC(N3CC(CC#N)(n4cc(-c5ncnc6[nH]ccc56)cn4)C3)CC2)cc1C#N [Example 55, 5-[(4-{3-(cyanomethyl)-3-[4-(7H-pyrrolo[2,3-d]pyrimidin-4-yl)-1H-pyrazol-1-yl]azetidin-1-yl}piperidin-1-yl)carbonyl]-2-methoxybenzonitrile] |
| > 100 | 20 to 30 | 5.2 | N#CCC1(n2cc(-c3ncnc4[nH]ccc34)cn2)CN(C2CCN(C(=O)c3ccc(C#N)cc3)CC2)C1 [Example 12, 4-[(4-{3-(cyanomethyl)-3-[4-(7H-pyrrolo[2,3-d]pyrimidin-4-yl)-1H-pyrazol-1-yl]azetidin-1-yl}piperidin-1-yl)carbonyl]benzonitrile] |
| ≤ 10 | ≤ 5 | 7.2 | N#CCC1(n2cc(-c3ncnc4[nH]ccc34)cn2)CN(C2CCN(C(=O)c3cc(F)cc(Br)c3)CC2)C1 [Example 29, {1-[1-(3-bromo-5-fluorobenzoyl)piperidin-4-yl]-3-[4-(7H-pyrrolo[2,3-d]pyrimidin-4-yl)-1H-pyrazol-1-yl]azetidin-3-yl}acetonitrile] |
| 10 to 50 | 20 to 30 | 1.4 | Cc1csc(NC(=O)N2CCC(N3CC(CC#N)(n4cc(-c5ncnc6[nH]ccc56)cn4)C3)CC2)n1 [Example 191, 4-{3-(cyanomethyl)-3-[4-(7H-pyrrolo[2,3-d]pyrimidin-4-yl)-1H-pyrazol-1-yl]azetidin-1-yl}-N-(4-methyl-1,3-thiazol-2-yl)piperidine-1-carboxamide] |
| 10 to 50 | ≤ 5 | 3.8 | COc1c(C(=O)N2CCC(N3CC(CC#N)(n4cc(-c5ncnc6[nH]ccc56)cn4)C3)CC2)csc1Cl [Example 74, {1-{1-[(5-chloro-4-methoxy-3-thienyl)carbonyl]piperidin-4-yl}-3-[4-(7H-pyrrolo[2,3-d]pyrimidin-4-yl)-1H-pyrazol-1-yl]azetidin-3-yl}acetonitrile] |
| ≤ 10 | ≤ 5 | 4.7 | N#CCC1(n2cc(-c3ncnc4[nH]ccc34)cn2)CN(C2CCN(C(=O)c3ccccc3F)CC2)C1 [Example 67, {1-[1-(2-fluorobenzoyl)piperidin-4-yl]-3-[4-(7H-pyrrolo[2,3-d]pyrimidin-4-yl)-1H-pyrazol-1-yl]azetidin-3-yl}acetonitrile] |

Continued, compound first:

| Compound | IC50 (Jak2 (a.a. 828-1132)) [nM] | IC50 [1] [nM] | IC50 Ratio JAK2/JAK1 [2] |
| --- | --- | --- | --- |
| N#CCC1(n2cc(-c3ncnc4[nH]ccc34)cn2)CN(C2CCN(C(=O)c3c(F)cc(-c4cccnc4)cc3F)CC2)C1 [Example 116, {1-[1-(2,6-difluoro-4-pyridin-3-ylbenzoyl)piperidin-4-yl]-3-[4-(7H-pyrrolo[2,3-d]pyrimidin-4-yl)-1H-pyrazol-1-yl]azetidin-3-yl}acetonitrile] | 10 to 50 | ≤ 5 | 10.6 |
| N#CCC1(n2cc(-c3ncnc4[nH]ccc34)cn2)CN(C2CCN(Cc3cc(Br)nc(Br)c3)CC2)C1 [Example 225, {1-{1-[(2,6-dibromopyridin-4-yl)methyl]piperidin-4-yl}-3-[4-(7H-pyrrolo[2,3-d]pyrimidin-4-yl)-1H-pyrazol-1-yl]azetidin-3-yl}acetonitrile] | 10 to 50 | ≤ 5 | 3.8 |
| N#CCC1(n2cc(-c3c(F)cnc4[nH]ccc34)cn2)CN(C2CCN(C(=O)c3cc(F)cc(C#N)c3)CC2)C1 [Example 316, 3-[(4-{3-(cyanomethyl)-3-[4-(5-fluoro-1H-pyrrolo[2,3-b]pyridin-4-yl)-1H-pyrazol-1-yl]azetidin-1-yl}piperidin-1-yl)carbonyl]-5-fluorobenzonitrile] | 10 to 50 | ≤ 5 | 9.5 |
| CCN(C)Cc1cc(C(=O)N2CCC(N3CC(CC#N)(n4cc(-c5ncnc6[nH]ccc56)cn4)C3)CC2)nc(C(F)(F)F)n1 [Example 374, {1-(1-{[6-{[ethyl(methyl)amino]methyl}-2-(trifluoromethyl)pyrimidin-4-yl]carbonyl}piperidin-4-yl)-3-[4-(7H-pyrrolo[2,3-d]pyrimidin-4-yl)-1H-pyrazol-1-yl]azetidin-3-yl}acetonitrile] | 10 to 50 | ≤ 5 | 50 |
| N#CCC1(n2cc(-c3ccnc4[nH]ccc34)cn2)CN(C2CCN(C(=O)Nc3ccc(C#N)cc3C(F)(F)F)CC2)C1 [Example 311, 4-{3-(cyanomethyl)-3-[4-(1H-pyrrolo[2,3-b]pyridin-4-yl)-1H-pyrazol-1-yl]azetidin-1-yl}-N-[4-cyano-2-(trifluoromethyl)phenyl]piperidine-1-carboxamide] | > 100 | 5 to 20 | 11.1 |
| N#CCC1(n2cc(-c3ncnc4[nH]ccc34)cn2)CN(C2CCN(Cc3c(F)cccc3Cl)CC2)C1 [Example 227, {1-[1-(2-chloro-6-fluorobenzyl)piperidin-4-yl]-3-[4-(7H-pyrrolo[2,3-d]pyrimidin-4-yl)-1H-pyrazol-1-yl]azetidin-3-yl}acetonitrile] | ≤ 10 | ≤ 5 | 7.9 |
| N#CCC1(n2cc(-c3ncnc4[nH]ccc34)cn2)CN(C2CCN(C(=O)C3CCCC3)CC2)C1 [Example 101, {1-[1-(cyclopentylcarbonyl)piperidin-4-yl]-3-[4-(7H-pyrrolo[2,3-d]pyrimidin-4-yl)-1H-pyrazol-1-yl]azetidin-3-yl}acetonitrile] | > 100 | 5 to 20 | 8.3 |
| N#CCC1(n2cc(-c3ncnc4[nH]ccc34)cn2)CN(C2CCN(C(=O)Nc3ccc(F)c(F)c3)CC2)C1 [Example 176, 4-{3-(cyanomethyl)-3-[4-(7H-pyrrolo[2,3-d]pyrimidin-4-yl)-1H-pyrazol-1-yl]azetidin-1-yl}-N-(3,4-difluorophenyl)piperidine-1-carboxamide] | ≤ 10 | ≤ 5 | 5.1 |
| N#CCC1(n2cc(-c3ncnc4[nH]ccc34)cn2)CN(C2CC3CCC(C2)N3Cc2c(F)ccc(F)c2Cl)C1 (stereo not drawn) [Example 241, {1-[8-(2-Chloro-3,6-difluorobenzyl)-8-azabicyclo[3.2.1]oct-3-yl]-3-[4-(7H-pyrrolo[2,3-d]pyrimidin-4-yl)-1H-pyrazol-1-yl]azetidin-3-yl}acetonitrile] | ≤ 10 | ≤ 5 | 3.8 |
